The source of these data is patent publication EP4703358A1, “BENZO SIX-MEMBERED HETEROCYCLIC GSPT1 PROTEIN DEGRADATION AGENT AND USE THEREOF” (China Pharmaceutical University, priority 2023, dated 2024).

pIC50: −log10 of the molar value. Some results are limits rather than exact numbers.

The target in one test is T1, GSPT1 protein (Homo sapiens, UniProt P15170+Q96SW2).
T1 construct: host or cells: KG-1 cells
Kind of test: Degradation of GSPT1 in KG-1 cells (Western blot). The test is classed as cell-based. On the set-up: percent GSPT1 degradation: dose or concentration left out as unconfirmed. The conditions noted are these: for percent GSPT1 degradation at 0.2 µM: KG-1 cells, compound concentration 200 nM, 4 hours. How it is done:
KG-1 cells (ATCC) were grown in an IMDM culture medium (containing 20% FBS). After centrifugation and counting, the cell concentration was adjusted. The cells were plated onto 6-well plates at 10^6 cells/well, with 1350 µL per well. 150 µL of DMSO and the test compounds of the present disclosure (compound concentration: 200 nM) were added. The plates were incubated in an incubator at 37 °C with 5% CO2 for 4 hours. The cells were centrifuged, and the culture medium was discarded. PBS was added to wash the cells and then discarded. Whole cell lysates were prepared using a protease inhibitor cocktail (100×, Fude Biological), a protein phosphatase inhibitor cocktail (100×, Fude Biological), SuperNuclease (Beyotime), and a high-intensity RIPA lysis buffer (Thermo Fisher) and placed on ice for 30 minutes. After centrifugation, the cell debris precipitates were discarded, and the whole cell lysate supernatants were collected and transferred to new centrifuge tubes. After a BCA protein assay, samples were prepared using a 5× loading buffer (Thermo Fisher). The samples were subjected to protein electrophoresis separation in a 4-20% precast gel (SDS-PAGE gel), transferred to a PVDF membrane, then blocked with 5% NFDM/TBST at room temperature for 1 hour, incubated overnight with primary antibodies at 4 °C, and incubated with a secondary antibody at room temperature for 2 hours the next day. Signals were detected using a MINICHEMITM imaging system.
Primary antibodies: • Anti-GSPT1: Abcam ab234433 • Anti-beta actin: Fude Biological FD0060
Secondary antibody: Anti-rabbit peroxidase-linked secondary antibody: Fude Biological FDG007
The degradation effects of the compounds on GSPT1 protein are shown in Table 1, where A represents a GSPT1 protein degradation percentage of no less than 80%, B represents a degradation percentage of less than 80% but no less than 50%, C represents a degradation percentage of less than 50% but no less than 25%, and D represents a degradation percentage of less than 25%. Table 1. The degradation of GSPT1 protein by compounds
For orientation: A western blot detects proteins with antibodies after separation by electrophoresis.

A further test deals with KG-1 cells. Briefly: Antiproliferative activity against KG-1 cells (CCK8). The conditions noted are these: Homo sapiens, 72 hours. Format: cell-based. The procedure: KG-1 cells in the logarithmic growth phase were diluted in a culture medium (RPMI + 10% FBS) and plated onto 96-well plates at 5000 cells/well, and the plates were incubated in an incubator at 37 °C with 5% CO2 for 24 hours. 10 mM stock solutions of the test compounds of the present disclosure in DMSO were prepared and diluted with the culture medium to set 9 concentration gradients. Three replicate wells were set for each concentration. After compound addition, the plates were incubated in an incubator at 37 °C with 5% CO2 for 72 hours. The cell proliferation was assessed using the CCK8 method. The cell growth inhibition IC50 values of the compounds were determined using an enzyme labeling method. The IC50 values were calculated using GraphPad Prism 7 software.
The antiproliferative activity of the compounds against KG-1 cells is shown in Table 2, where A represents IC50 < 1 nM, B represents 1 ≤ IC50 < 10 nM, C represents 10 nM ≤ IC50 < 100 nM, D represents 100 nM ≤ IC50 < 1000 nM, and E represents IC50 ≥ 1000 nM. Table 2. The antiproliferative activity of compounds against KG-1 cells

T1 sequence (P15170 whole entry): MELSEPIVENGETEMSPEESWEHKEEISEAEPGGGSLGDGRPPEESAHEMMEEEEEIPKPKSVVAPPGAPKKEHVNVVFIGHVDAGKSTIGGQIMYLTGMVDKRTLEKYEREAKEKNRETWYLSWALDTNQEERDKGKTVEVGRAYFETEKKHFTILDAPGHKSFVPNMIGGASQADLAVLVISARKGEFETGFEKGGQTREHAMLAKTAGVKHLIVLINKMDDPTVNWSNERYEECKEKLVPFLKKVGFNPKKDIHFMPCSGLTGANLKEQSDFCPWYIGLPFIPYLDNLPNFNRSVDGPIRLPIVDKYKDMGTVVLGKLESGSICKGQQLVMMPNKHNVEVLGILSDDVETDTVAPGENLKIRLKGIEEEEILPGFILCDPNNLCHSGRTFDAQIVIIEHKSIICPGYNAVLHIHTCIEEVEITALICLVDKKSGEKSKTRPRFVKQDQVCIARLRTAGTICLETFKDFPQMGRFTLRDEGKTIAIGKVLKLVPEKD
T1 sequence (Q96SW2 whole entry): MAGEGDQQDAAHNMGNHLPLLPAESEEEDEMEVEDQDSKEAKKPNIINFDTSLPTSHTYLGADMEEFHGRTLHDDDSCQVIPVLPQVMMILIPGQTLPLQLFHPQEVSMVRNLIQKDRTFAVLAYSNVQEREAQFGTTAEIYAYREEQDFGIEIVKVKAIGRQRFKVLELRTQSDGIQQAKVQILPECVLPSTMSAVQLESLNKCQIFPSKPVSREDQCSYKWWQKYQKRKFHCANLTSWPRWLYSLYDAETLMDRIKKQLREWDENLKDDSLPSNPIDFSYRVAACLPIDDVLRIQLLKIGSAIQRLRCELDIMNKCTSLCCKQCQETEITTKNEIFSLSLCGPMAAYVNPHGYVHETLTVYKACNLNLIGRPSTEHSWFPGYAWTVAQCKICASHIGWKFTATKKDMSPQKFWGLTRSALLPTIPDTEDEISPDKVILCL
T1 sequence (Q16531 whole entry partner): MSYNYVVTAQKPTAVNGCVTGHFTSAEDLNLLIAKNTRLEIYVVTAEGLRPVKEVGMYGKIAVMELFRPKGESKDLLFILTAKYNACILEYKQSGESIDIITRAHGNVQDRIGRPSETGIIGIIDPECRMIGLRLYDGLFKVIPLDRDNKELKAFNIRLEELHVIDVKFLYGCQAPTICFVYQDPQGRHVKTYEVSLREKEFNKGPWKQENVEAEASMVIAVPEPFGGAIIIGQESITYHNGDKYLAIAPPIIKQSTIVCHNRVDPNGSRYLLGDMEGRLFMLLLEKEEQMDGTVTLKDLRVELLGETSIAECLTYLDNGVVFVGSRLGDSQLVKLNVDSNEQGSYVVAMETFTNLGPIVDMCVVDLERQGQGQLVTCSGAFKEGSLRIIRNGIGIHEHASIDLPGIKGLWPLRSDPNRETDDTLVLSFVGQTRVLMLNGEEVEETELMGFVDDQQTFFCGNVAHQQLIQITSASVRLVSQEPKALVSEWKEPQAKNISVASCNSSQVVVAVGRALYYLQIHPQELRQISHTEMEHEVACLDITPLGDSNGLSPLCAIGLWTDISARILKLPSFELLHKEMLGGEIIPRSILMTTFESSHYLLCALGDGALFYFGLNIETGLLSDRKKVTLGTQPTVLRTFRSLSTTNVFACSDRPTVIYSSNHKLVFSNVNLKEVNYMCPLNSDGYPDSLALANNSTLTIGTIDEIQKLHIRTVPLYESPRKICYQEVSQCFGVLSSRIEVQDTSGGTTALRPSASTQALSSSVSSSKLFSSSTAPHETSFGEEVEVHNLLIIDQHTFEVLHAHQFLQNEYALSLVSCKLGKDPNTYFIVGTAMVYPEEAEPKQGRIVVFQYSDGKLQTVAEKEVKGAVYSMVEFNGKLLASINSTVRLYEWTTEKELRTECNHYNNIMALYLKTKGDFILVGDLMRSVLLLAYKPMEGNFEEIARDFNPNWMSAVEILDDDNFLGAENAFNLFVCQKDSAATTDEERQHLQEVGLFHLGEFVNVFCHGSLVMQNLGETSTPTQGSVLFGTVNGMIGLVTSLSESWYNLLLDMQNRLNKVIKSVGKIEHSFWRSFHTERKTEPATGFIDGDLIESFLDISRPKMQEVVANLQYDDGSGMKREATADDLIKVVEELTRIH

With `O=C1CCC(N2Cc3cc(CNC(=O)C4=Cc5c(F)cccc5OC4)ccc3C2=O)C(=O)N1` (centres unmarked) [Compound A-2, N-((2-(2,6-Dioxopiperidin-3-yl)-1-oxoisoindolin-5-yl)methyl)-5-fluoro-2H-chromene-3-carboxamide], the percent GSPT1 degradation at 0.2 µM at GSPT1 protein was greater than 80%. In the test on KG-1 cells, the pIC50 – broadly, −log10 of the IC50, conventionally taken in molar units – is 7.00 to 8.00.
Consider `O=C1CCC(N2Cc3cc(CNC(=O)C4=Cc5ccc(F)cc5OC4)ccc3C2=O)C(=O)N1` (centres unmarked) [Compound A-4, N-((2-(2,6-Dioxopiperidin-3-yl)-1-oxoisoindolin-5-yl)methyl)-7-fluoro-2H-chromene-3-carboxamide], for which the percent GSPT1 degradation at 0.2 µM at GSPT1 protein was in the range of 50 to 80%. The compound also gave a pIC50 in the test on KG-1 cells of 7.00 to 8.00.
With `O=C1CCC(N2Cc3cc(CNC(=O)C4=Cc5cccc(F)c5OC4)ccc3C2=O)C(=O)N1` (centres unmarked) [Compound A-5, N-((2-(2,6-Dioxopiperidin-3-yl)-1-oxoisoindolin-5-yl)methyl)-8-fluoro-2H-chromene-3-carboxamide], the percent GSPT1 degradation at 0.2 µM on GSPT1 protein is greater than 80%. This compound had a pIC50 with KG-1 cells of 8.00 to 9.00.
For `O=C1CCC(N2Cc3cc(CNC(=O)C4=Cc5cc(Cl)ccc5OC4)ccc3C2=O)C(=O)N1` (centres unmarked) [Compound A-6, N-((2-(2,6-Dioxopiperidin-3-yl)-1-oxoisoindolin-5-yl)methyl)-6-chloro-2H-chromene-3-carboxamide], the percent GSPT1 degradation at GSPT1 protein (KG-1, 4 h, read-out: GSPT1 degradation) is greater than 80%. Moreover, the pIC50 in the test with KG-1 cells was 7.00 to 8.00.
With `Cc1ccc2c(c1)C=C(C(=O)NCc1ccc3c(c1)CN(C1CCC(=O)NC1=O)C3=O)CO2` (centres unmarked) [Compound A-7, N-((2-(2,6-Dioxopiperidin-3-yl)-1-oxoisoindolin-5-yl)methyl)-6-methyl-2H-chromene-3-carboxamide], the percent GSPT1 degradation at 0.2 µM at GSPT1 protein was greater than 80%. Besides, the pIC50 in the test with KG-1 cells is 8.00 to 9.00.
The matching figures for `COc1ccc2c(c1)C=C(C(=O)NCc1ccc3c(c1)CN(C1CCC(=O)NC1=O)C3=O)CO2` (centres unmarked) [Compound A-8, N-((2-(2,6-Dioxopiperidin-3-yl)-1-oxoisoindolin-5-yl)methyl)-6-methoxy-2H-chromene-3-carboxamide]: 50 to 80% and 7.00 to 8.00.
The matching figures for `COc1cccc2c1C=C(C(=O)NCc1ccc3c(c1)CN(C1CCC(=O)NC1=O)C3=O)CO2` (centres unmarked) [Compound A-9, N-((2-(2,6-Dioxopiperidin-3-yl)-1-oxoisoindolin-5-yl)methyl)-5-methoxy-2H-chromene-3-carboxamide]: greater than 80% and 8.00 to 9.00.
At GSPT1 protein, `N#Cc1ccc2c(c1)C=C(C(=O)NCc1ccc3c(c1)CN(C1CCC(=O)NC1=O)C3=O)CO2` (centres unmarked) [Compound A-11, N-((2-(2,6-Dioxopiperidin-3-yl)-1-oxoisoindolin-5-yl)methyl)-6-cyano-2H-chromene-3-carboxamide] had a percent GSPT1 degradation at 0.2 µM greater than 80%. In addition, the pIC50 in the test with KG-1 cells is 7.00 to 8.00.
Turning to `Nc1ccc2c(c1)C=C(C(=O)NCc1ccc3c(c1)CN(C1CCC(=O)NC1=O)C3=O)CO2` (centres unmarked) [Compound A-12, N-((2-(2,6-Dioxopiperidin-3-yl)-1-oxoisoindolin-5-yl)methyl)-6-amino-2H-chromene-3-carboxamide], the percent GSPT1 degradation at 0.2 µM on GSPT1 protein is greater than 80%. The compound further had a pIC50 in the test with KG-1 cells of 7.00 to 8.00.
In turn, `CN(C)c1ccc2c(c1)C=C(C(=O)NCc1ccc3c(c1)CN(C1CCC(=O)NC1=O)C3=O)CO2` (centres unmarked) [Compound A-13, N-((2-(2,6-Dioxopiperidin-3-yl)-1-oxoisoindolin-5-yl)methyl)-6-(dimethylamino)-2H-chromene-3-carboxamide] showed a percent GSPT1 degradation at 0.2 µM on GSPT1 protein of 50 to 80%. The pIC50 in the test with KG-1 cells was 7.00 to 8.00.
Turning to `C=Cc1ccc2c(c1)C=C(C(=O)NCc1ccc3c(c1)CN(C1CCC(=O)NC1=O)C3=O)CO2` (centres unmarked) [Compound A-14, N-((2-(2,6-Dioxopiperidin-3-yl)-1-oxoisoindolin-5-yl)methyl)-6-vinyl-2H-chromene-3-carboxamide], the percent GSPT1 degradation at 0.2 µM at GSPT1 protein fell in the range of 50 to 80%. The pIC50 with KG-1 cells is 7.00 to 8.00.
`C#Cc1ccc2c(c1)C=C(C(=O)NCc1ccc3c(c1)CN(C1CCC(=O)NC1=O)C3=O)CO2` (centres unmarked) [Compound A-15, N-((2-(2,6-Dioxopiperidin-3-yl)-1-oxoisoindolin-5-yl)methyl)-6-ethynyl-2H-chromene-3-carboxamide] registered a percent GSPT1 degradation at 0.2 µM on GSPT1 protein of 50 to 80%. This compound also gave a pIC50 in the test on KG-1 cells of 6.00 to 7.00.
With `CC(C)(C)c1ccc2c(c1)C=C(C(=O)NCc1ccc3c(c1)CN(C1CCC(=O)NC1=O)C3=O)CO2` (centres unmarked) [Compound A-16, N-((2-(2,6-Dioxopiperidin-3-yl)-1-oxoisoindolin-5-yl)methyl)-6-tert-butyl-2H-chromene-3-carboxamide], the percent GSPT1 degradation at 0.2 µM on GSPT1 protein is 50 to 80%. Further, in the test with KG-1 cells, the pIC50 is 7.00 to 8.00.
In the same order, the values of `O=C1CCC(N2Cc3cc(CNC(=O)C4=Cc5cc(-c6ccccc6)ccc5OC4)ccc3C2=O)C(=O)N1` (centres unmarked) [Compound A-17, N-((2-(2,6-Dioxopiperidin-3-yl)-1-oxoisoindolin-5-yl)methyl)-6-phenyl-2H-chromene-3-carboxamide] are 50 to 80% and 6.00 to 7.00.
`O=C1CCC(N2Cc3cc(CNC(=O)C4=Cc5cccc(C(F)(F)F)c5OC4)ccc3C2=O)C(=O)N1` (centres unmarked) [Compound A-18, N-((2-(2,6-Dioxopiperidin-3-yl)-1-oxoisoindolin-5-yl)methyl)-8-trifluoromethyl-2H-chromene-3-carboxamide]: the percent GSPT1 degradation at 0.2 µM at GSPT1 protein was greater than 80%. In the test on KG-1 cells, the pIC50 is greater than 9.00.
The matching figures for `O=C1CCC(N2Cc3cc(CNC(=O)C4=Cc5cccc(OC(F)(F)F)c5OC4)ccc3C2=O)C(=O)N1` (centres unmarked) [Compound A-19, N-((2-(2,6-Dioxopiperidin-3-yl)-1-oxoisoindolin-5-yl)methyl)-8-trifluoromethoxy-2H-chromene-3-carboxamide]: greater than 80% and 8.00 to 9.00.
The matching figures for `COc1cccc2c1OCC(C(=O)NCc1ccc3c(c1)CN(C1CCC(=O)NC1=O)C3=O)=C2` (centres unmarked) [Compound A-20, N-((2-(2,6-Dioxopiperidin-3-yl)-1-oxoisoindolin-5-yl)methyl)-8-methoxy-2H-chromene-3-carboxamide]: greater than 80% and 8.00 to 9.00.
The matching figures for `Cc1cccc2c1OCC(C(=O)NCc1ccc3c(c1)CN(C1CCC(=O)NC1=O)C3=O)=C2` (centres unmarked) [Compound A-21, N-((2-(2,6-Dioxopiperidin-3-yl)-1-oxoisoindolin-5-yl)methyl)-8-methyl-2H-chromene-3-carboxamide]: greater than 80% and 8.00 to 9.00.
`Cc1cccc2c1C=C(C(=O)NCc1ccc3c(c1)CN(C1CCC(=O)NC1=O)C3=O)CO2` (centres unmarked) [Compound A-22, N-((2-(2,6-Dioxopiperidin-3-yl)-1-oxoisoindolin-5-yl)methyl)-5-methyl-2H-chromene-3-carboxamide] showed a percent GSPT1 degradation at 0.2 µM on GSPT1 protein greater than 80%. Also, the pIC50 with KG-1 cells is 8.00 to 9.00.
In turn, `CC(=O)Nc1ccc2c(c1)C=C(C(=O)NCc1ccc3c(c1)CN(C1CCC(=O)NC1=O)C3=O)CO2` (centres unmarked) [Compound A-23, N-((2-(2,6-Dioxopiperidin-3-yl)-1-oxoisoindolin-5-yl)methyl)-6-(acetamido)-2H-chromene-3-carboxamide] gave a percent GSPT1 degradation at 0.2 µM at GSPT1 protein of 25 to 50%. This compound also showed a pIC50 in the test on KG-1 cells of no more than 6.00.
Compound `C=CC(=O)Nc1ccc2c(c1)C=C(C(=O)NCc1ccc3c(c1)CN(C1CCC(=O)NC1=O)C3=O)CO2` (centres unmarked) [Compound A-24, N-((2-(2,6-Dioxopiperidin-3-yl)-1-oxoisoindolin-5-yl)methyl)-6-(acrylamido)-2H-chromene-3-carboxamide] returned a percent GSPT1 degradation at 0.2 µM on GSPT1 protein of 25 to 50%. The compound also gave a pIC50 in the test with KG-1 cells of no more than 6.00.
In turn, `O=C1CCC(N2Cc3cc(CNC(=O)C4=Cc5cc(NC(=O)CO)ccc5OC4)ccc3C2=O)C(=O)N1` (centres unmarked) [Compound A-25, N-((2-(2,6-Dioxopiperidin-3-yl)-1-oxoisoindolin-5-yl)methyl)-6-(2-hydroxyacetamido)-2H-chromene-3-carboxamide] displayed a percent GSPT1 degradation at 0.2 µM on GSPT1 protein of 25 to 50%. The pIC50 in the test on KG-1 cells is no more than 6.00.
